Source: ChEMBL document CHEMBL5331129, “Discovery of NAFLD-Improving Agents by Promoting the Degradation of Keap1” (J Med Chem, 2023)
The source made the active and inactive calls. The calls are words filed in the database; no cut-off is given here.

Key:
[1] = biological target: Protein cereblon/Kelch-like ECH-associated protein 1 (Mus musculus, UniProt Q8C7D2+Q9Z2X8); test: PROTAC activity at CRBN/Keap1 in mouse AML12 cells assessed as reduction of Keap1 protein incubated for 24 hrs by Western blotting analysis; format: cell-based
[2] = biological target: T1, Protein cereblon/Kelch-like ECH-associated protein 1 (Mus musculus) (UniProt Q9Z2X8+Q8C7D2); test: PROTAC activity at CRBN/Keap1 in mouse AML12 cells assessed as degradation of Keap1 protein at 0.5 to 2 uM incubated for 24 hrs by Western blotting analysis; format: cell-based; details: dose 0.5-2 µM
[3] = biological target: Protein cereblon/Kelch-like ECH-associated protein 1 (Mus musculus, UniProt Q9Z2X8+Q8C7D2); test: PROTAC activity at CRBN/Keap1 in mouse AML12 cells assessed as degradation of Keap1 protein at 0.5 to 2 uM incubated for 48 hrs by Western blotting analysis; format: cell-based
[4] = biological target: T1, Protein cereblon/Kelch-like ECH-associated protein 1 (Mus musculus); test: PROTAC activity at CRBN/Keap1 in mouse AML12 cells assessed as degradation of Keap1 protein level at 1 uM preincubated with proteasome inhibitor, MG-132 followed by compound addition and incubated for 24 hrs by Western blotting analysis; format: cell-based
[5] = biological target: Kelch-like ECH-associated protein 1 (Homo sapiens, UniProt Q14145); test: Binding affinity to Keap1 (unknown origin) assessed as dissociation constant incubated for 200 sec by sensor chip immobilization based surface plasmon resonance analysis
AML12 [6] = test: Antioxidant activity against free fatty acid induced oxidative stress in mouse AML12 cells assessed as downregulation of Keap1 protein expression level at 0.125 to 0.5 uM incubated for 24 hrs by immunoblot analysis; format: functional, cell-based; details: dose 0.125-0.5 µM
AML12 [7] = test: Antioxidant activity against free fatty acid induced oxidative stress in mouse AML12 cells assessed as upregulation of Nrf2 protein expression level at 0.125 to 0.5 uM incubated for 24 hrs by immunoblot analysis; format: functional, cell-based; details: dose 0.125-0.5 µM
AML12 [8] = test: Antioxidant activity against free fatty acid induced oxidative stress in mouse AML12 cells assessed as upregulation of HO-1 protein expression level at 0.125 to 0.5 uM incubated for 24 hrs by immunoblot analysis; format: functional, cell-based; details: dose 0.125-0.5 µM
AML12 [9] = test: Antioxidant activity against free fatty acid induced oxidative stress in mouse AML12 cells assessed as upregulation of NQO1 protein expression level at 0.125 to 0.5 uM incubated for 24 hrs by immunoblot analysis; format: functional, cell-based; details: dose 0.125-0.5 µM
AML12 [10] = test: Antioxidant activity against free fatty acid induced oxidative stress in mouse AML12 cells assessed as decrease in ROS level at 0.125 to 0.5 uM incubated for 24 hrs; format: functional, cell-based; details: dose 0.125-0.5 µM
AML12 [11] = test: Antioxidant activity against free fatty acid induced oxidative stress in mouse AML12 cells assessed as increase in GSH level at 0.125 to 0.5 uM; format: functional, cell-based; details: dose 0.125-0.5 µM
Mus musculus [12] = test: Antioxidant activity against MCD diet-induced oxidative stress in C57Bl/6 mouse model of NAFLD assessed as downregulation of liver Keap1 protein expression level at 0.5 to 2 mg/kg,ip administrated for 4 weeks by immunohistochemical staining assay; format: functional, organism-based; details: dose 0.5-2 mg/kg
Mus musculus [13] = test: Antioxidant activity against MCD diet-induced oxidative stress in C57Bl/6 mouse model of NAFLD assessed as downregulation of liver Keap1 protein expression level at 0.5 to 2 mg/kg,ip administrated for 4 weeks by immunofluorescence staining analysis; format: functional, organism-based; details: dose 0.5-2 mg/kg
Mus musculus [14] = test: Antioxidant activity against MCD diet-induced oxidative stress in C57Bl/6 mouse model of NAFLD assessed as upregulation of liver NQO1 protein expression level at 0.5 to 2 mg/kg,ip administrated for 4 weeks by immunohistochemical staining assay; format: functional, organism-based; details: dose 0.5-2 mg/kg
Mus musculus [15] = test: Antioxidant activity against MCD diet-induced oxidative stress in C57Bl/6 mouse model of NAFLD assessed as increase in CAT level in liver at 0.5 to 2 mg/kg,ip administrated for 4 weeks; format: functional, organism-based; details: dose 0.5-2 mg/kg
Mus musculus [16] = test: Antioxidant activity against MCD diet-induced oxidative stress in C57Bl/6 mouse model of NAFLD assessed as increase in SOD level in liver at 0.5 to 2 mg/kg,ip administrated for 4 weeks; format: functional, organism-based; details: dose 0.5-2 mg/kg
Mus musculus [17] = test: Antioxidant activity against MCD diet-induced oxidative stress in C57Bl/6 mouse model of NAFLD assessed as increase in GSH level in liver at 0.5 to 2 mg/kg,ip administrated for 4 weeks; format: functional, organism-based; details: dose 0.5-2 mg/kg
AML12 [18] = test: Antioxidant activity against free fatty acid induced oxidative stress in mouse AML12 cells assessed as reduction in triglyceride level at 0.5 uM incubated for 24 hrs; format: functional, cell-based
AML12 [19] = test: Antioxidant activity against free fatty acid induced oxidative stress in mouse AML12 cells assessed as reduction in total cholesterol level at 0.5 uM incubated for 24 hrs; format: functional, cell-based
[20] = Toxicity in MCD diet-induced oxidative stress in C57Bl/6 mouse model of NAFLD assessed as body weight loss at 2 mg/kg,ip administrated for 4 weeks […]; format: organism-based; details: in vivo, 672 h
Mus musculus [21] = test: Antioxidant activity against MCD diet-induced oxidative stress in C57Bl/6 mouse model of NAFLD assessed as reduction of serum TG level at 0.5 to 2 mg/kg,ip administrated for 4 weeks; format: functional, organism-based; details: dose 0.5-2 mg/kg
Mus musculus [22] = test: Antioxidant activity against MCD diet-induced oxidative stress in C57Bl/6 mouse model of NAFLD assessed as reduction of serum aminotransferase level at 0.5 to 2 mg/kg,ip administrated for 4 weeks; format: functional, organism-based; details: dose 0.5-2 mg/kg
Mus musculus [23] = test: Antioxidant activity against MCD diet-induced oxidative stress in C57Bl/6 mouse model of NAFLD assessed as reduction of serum ALT level at 0.5 to 2 mg/kg,ip administrated for 4 weeks; format: functional, organism-based; details: dose 0.5-2 mg/kg
Mus musculus [24] = test: Antioxidant activity against MCD diet-induced oxidative stress in C57Bl/6 mouse model of NAFLD assessed as reduction of pericellular fibrosis in liver at ip administrated for 4 weeks by Sirius red staining based analysis; format: functional, organism-based
[25] = Acute toxicity in zebrafish at < 5 uM observed at 48 hrs post fertilization; set-up: species or system Danio rerio; details: in vivo
[26] = Cardiotoxicity in zebrafish at 10 uM observed at 72 hrs post fertilization; format: toxicity, Danio rerio
[27] = Acute toxicity in C57BL/6 mouse assessed as histopathological change in lung at 20 mg/kg,ip qd administrated for 3 consecutive days and measured on day 4 by hematoxylin and eosin staining based assay; format: organism-based; details: in vivo
[28] = Acute toxicity in C57BL/6 mouse assessed as histopathological change in spleen at 20 mg/kg,ip qd administrated for 3 consecutive days and measured on day 4 by hematoxylin and eosin staining based assay; format: organism-based; details: in vivo
[29] = Toxicity in C57BL/6 mouse assessed as change in body weight at 2 mg/kg,ip qd administrated for 4 weeks; format: organism-based; details: in vivo, 672 h
[30] = Toxicity in C57BL/6 mouse assessed as histopathological change in liver at 2 mg/kg,ip qd administrated for 4 weeks by hematoxylin and eosin staining based assay; format: organism-based; details: in vivo, 672 h
[31] = Toxicity in C57BL/6 mouse assessed as histopathological change in lung at 2 mg/kg,ip qd administrated for 4 weeks by hematoxylin and eosin staining based assay; format: organism-based; details: in vivo, 672 h
[32] = Toxicity in C57BL/6 mouse assessed as histopathological change in spleen at 2 mg/kg,ip qd administrated for 4 weeks by hematoxylin and eosin staining based assay; format: organism-based; details: in vivo, 672 h

T1 sequence (Q8C7D2 whole entry, looked up): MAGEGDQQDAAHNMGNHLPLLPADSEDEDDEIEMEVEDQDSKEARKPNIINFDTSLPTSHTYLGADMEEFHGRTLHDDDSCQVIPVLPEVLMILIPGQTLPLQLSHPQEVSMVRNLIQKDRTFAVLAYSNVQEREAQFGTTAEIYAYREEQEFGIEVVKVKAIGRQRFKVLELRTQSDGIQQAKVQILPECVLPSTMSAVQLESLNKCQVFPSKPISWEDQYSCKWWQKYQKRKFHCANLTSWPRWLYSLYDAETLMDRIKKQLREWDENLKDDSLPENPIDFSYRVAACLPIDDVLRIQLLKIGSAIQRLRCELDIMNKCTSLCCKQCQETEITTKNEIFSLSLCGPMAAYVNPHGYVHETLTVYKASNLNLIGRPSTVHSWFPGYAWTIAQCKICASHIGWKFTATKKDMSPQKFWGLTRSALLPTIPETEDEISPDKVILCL
T1 sequence (Q9Z2X8 whole entry, looked up): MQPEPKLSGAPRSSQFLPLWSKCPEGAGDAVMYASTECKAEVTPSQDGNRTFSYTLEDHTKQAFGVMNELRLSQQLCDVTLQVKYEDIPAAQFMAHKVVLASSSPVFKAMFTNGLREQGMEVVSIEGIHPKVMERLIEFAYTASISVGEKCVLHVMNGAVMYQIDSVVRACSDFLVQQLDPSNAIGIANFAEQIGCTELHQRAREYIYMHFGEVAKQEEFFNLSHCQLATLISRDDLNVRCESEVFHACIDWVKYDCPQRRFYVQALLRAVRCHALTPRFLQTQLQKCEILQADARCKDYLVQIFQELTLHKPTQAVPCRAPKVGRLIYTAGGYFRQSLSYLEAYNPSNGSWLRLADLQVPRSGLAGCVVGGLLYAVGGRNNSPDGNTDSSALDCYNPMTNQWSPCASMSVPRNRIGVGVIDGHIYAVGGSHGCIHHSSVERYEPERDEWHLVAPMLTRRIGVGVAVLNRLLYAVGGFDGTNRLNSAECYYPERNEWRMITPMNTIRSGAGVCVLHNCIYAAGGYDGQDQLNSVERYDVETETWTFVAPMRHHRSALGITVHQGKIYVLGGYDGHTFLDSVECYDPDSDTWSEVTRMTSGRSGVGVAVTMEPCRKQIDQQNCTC
Kelch-like ECH-associated protein 1, sequence (Q14145 whole entry): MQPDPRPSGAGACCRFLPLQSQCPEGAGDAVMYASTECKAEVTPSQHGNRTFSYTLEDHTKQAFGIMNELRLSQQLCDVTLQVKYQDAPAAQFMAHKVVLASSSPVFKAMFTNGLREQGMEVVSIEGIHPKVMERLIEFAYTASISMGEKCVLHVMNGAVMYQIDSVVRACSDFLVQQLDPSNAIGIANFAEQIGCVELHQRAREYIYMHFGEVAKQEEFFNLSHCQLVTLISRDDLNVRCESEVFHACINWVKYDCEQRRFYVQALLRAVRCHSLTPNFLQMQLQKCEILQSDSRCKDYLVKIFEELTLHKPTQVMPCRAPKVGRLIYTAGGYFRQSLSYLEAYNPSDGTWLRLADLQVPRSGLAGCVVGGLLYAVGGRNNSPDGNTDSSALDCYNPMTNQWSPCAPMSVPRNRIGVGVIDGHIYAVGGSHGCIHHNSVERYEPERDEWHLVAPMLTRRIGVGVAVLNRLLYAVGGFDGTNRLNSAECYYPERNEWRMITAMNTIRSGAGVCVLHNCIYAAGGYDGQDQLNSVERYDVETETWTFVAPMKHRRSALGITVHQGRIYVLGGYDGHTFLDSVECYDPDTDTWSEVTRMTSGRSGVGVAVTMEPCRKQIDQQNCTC
Protein cereblon/Kelch-like ECH-associated protein 1 (Mus musculus, UniProt Q9Z2X8+Q8C7D2), sequence (Q9Z2X8 whole entry): as the sequence (Q9Z2X8 whole entry, looked up) above
Protein cereblon/Kelch-like ECH-associated protein 1 (Mus musculus, UniProt Q9Z2X8+Q8C7D2), sequence (Q8C7D2 whole entry): as the sequence (Q8C7D2 whole entry, looked up) above
Protein cereblon/Kelch-like ECH-associated protein 1 (Mus musculus, UniProt Q8C7D2+Q9Z2X8), sequence (Q9Z2X8 whole entry): as the sequence (Q9Z2X8 whole entry, looked up) above
Protein cereblon/Kelch-like ECH-associated protein 1 (Mus musculus, UniProt Q8C7D2+Q9Z2X8), sequence (Q8C7D2 whole entry): as the sequence (Q8C7D2 whole entry, looked up) above

In the case of `CC1(C)CC[C@]2(C(=O)NCCCCCNc3cccc4c3C(=O)N(C3CCC(=O)NC3=O)C4=O)CC[C@]3(C)[C@H](C(=O)C=C4C5(C)C=C(C#N)C(=O)C(C)(C)[C@@H]5CC[C@]43C)[C@@H]2C1` (single isomer, unassigned), the IC50 [1] is reported as 18.2 µM, the Activity [2] is reported as “Active” and the DC50 [3] is reported as 0.21 µM. For the same compound, the Activity [4] was “inactive”, the Kd [5] was 11.9 µM and the Activity (AML12 [6]) was “Active”. For the same compound, the Activity (AML12 [7]) was “Active”, the Activity (AML12 [8]) was “Active” and the Activity (AML12 [9]) was “Active”. For the same compound, the Activity (AML12 [10]) was “Active”, the Activity (AML12 [11]) was “Active” and the Activity (Mus musculus [12]) was “Dose-Dependent Effect”. The Activity (Mus musculus [13]) was “Dose-Dependent Effect”, the Activity (Mus musculus [14]) was “Dose-Dependent Effect” and the Activity (Mus musculus [15]) was “Active”. For the same compound, the Activity (Mus musculus [16]) was “Active”, the Activity (Mus musculus [17]) was “Active” and the Activity (AML12 [18]) was “Active”. The Activity (AML12 [19]) was “inactive”, the Activity [20] was “Non-Toxic” and the Activity (Mus musculus [21]) was “Active”. The Activity (Mus musculus [22]) was “Active”, the Activity (Mus musculus [23]) was “Active” and the Activity (Mus musculus [24]) was “Dose-Dependent Effect”. The Activity [25] was “Non-Toxic”, the Activity [26] was “Non-Toxic” and the Activity [27] was “Non-Toxic”. The Activity [28] was “Non-Toxic”, the Activity [29] was “Toxic” and the Activity [30] was “Non-Toxic”. For the same compound, the Activity [31] was “Non-Toxic” and the Activity [32] was “Non-Toxic”.
